Measurements from patent US20240226225A1 (Protagonist Therapeutics, Inc., priority 2021, published 2024).
Starred links: 1 amine or outer side, 2 acyl side, 3 side chain; linkers in the order of their positions; H or OH if unused. Positions of bridges follow the written chain, without caps; N, C: chain ends. Non-standard residues stand in square brackets, D forms with d. Residues, ends and D or L forms follow the SMILES beside them. Groups on a side chain read outwards from the residue. *: point of attachment. CH3O(CH2CH2O)11CH2CH2CO = COCCOCCOCCOCCOCCOCCOCCOCCOCCOCCOCCOCCC(=O)*; Ala(1H-tetrazol-5-yl) = N[C@@H](Cc1nnn[nH]1)C(=O)O; C18 diacid = O=C(O)CCCCCCCCCCCCCCCCC(=O)*; Dip = N[C@H](C(=O)O)C(c1ccccc1)c1ccccc1; γGlu = O=C(O)[C@H](CCC(=O)[*:2])N[*:1]; Palmitoyl = CCCCCCCCCCCCCCCC(=O)*; β3hF = N[C@H](CC(=O)O)Cc1ccccc1; Isovaleryl = CC(C)CC(=O)*; AEEA = NCCOCCOCC(=O)O; X4 = O=C(CCC(F)(F)F)*; Ahx = NCCCCCC(=O)O

Assays:
[1] = biological target: T1, ferroportin (Homo sapiens, UniProt Q9NP59); assay: FPN activity assay: internalization/degradation of ferroportin-GFP in stably transfected HEK293 cells, decrease in GFP fluorescence; type: cell-based; set-up: expressed in transfected cells; details: HEK293 cells stably expressing ferroportin-GFP, at least 18 hours incubation; read-out: FPN EC50
T1 sequence (Q9NP59 1-571): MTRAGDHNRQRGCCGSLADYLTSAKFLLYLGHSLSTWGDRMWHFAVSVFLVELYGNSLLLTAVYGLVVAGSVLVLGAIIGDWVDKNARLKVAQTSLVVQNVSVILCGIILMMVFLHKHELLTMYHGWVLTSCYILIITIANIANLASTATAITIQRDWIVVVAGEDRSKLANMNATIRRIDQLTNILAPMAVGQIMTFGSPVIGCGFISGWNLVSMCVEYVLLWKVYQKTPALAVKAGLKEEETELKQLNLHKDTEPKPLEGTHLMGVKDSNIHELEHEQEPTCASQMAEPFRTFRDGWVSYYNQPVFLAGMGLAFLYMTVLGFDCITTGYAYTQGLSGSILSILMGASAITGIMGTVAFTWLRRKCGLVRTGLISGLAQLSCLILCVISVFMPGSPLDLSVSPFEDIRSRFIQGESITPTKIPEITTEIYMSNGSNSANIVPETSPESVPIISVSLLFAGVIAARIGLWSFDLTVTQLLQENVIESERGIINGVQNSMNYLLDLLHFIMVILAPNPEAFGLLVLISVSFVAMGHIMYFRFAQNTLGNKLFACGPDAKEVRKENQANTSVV

[2] = biological target: T1, ferroportin; assay: T47D cell-based ferroportin internalization assay in presence of 0.5% mouse serum albumin (MSA), AF647-conjugated detection peptide, flow cytometry; set-up: a human breast carcinoma adherent cell line which endogenously expresses ferroportin; host or cells: T47D; details: T47D cells, 1 hr incubation
Procedure: The potency of the peptides in causing ferroportin internalization was evaluated in a T47D cell-based assay. […] In this internalization assay, the potency of the test peptides was evaluated in presence of serum albumin which is the main protein component in the blood. T47D cells were maintained in RPMI media (containing required amount of fetal bovine serum) and regularly sub-cultured. In preparation for the assay, the cells were seeded in 96-well plates at a density of 80-100 k cells per well in 100 ul volume and allowed to rest overnight. On the next day, test peptides were first prepared in dilution series (10-point series, starting concentration of ˜5 μM, typically 3-4×fold dilution steps), all with 0.5% mouse serum albumin (MSA purified from mouse serum; Sigma, A3139). The test peptide dilution series were allowed to incubate at room temperature for 30 min. Then the media was aspirated from the 96-well cell plate and test peptide dilution series were added. After 1 hr incubation, the media with test peptides was aspirated out and AF647-conjugated detection peptide was added at fixed concentration of 200 nM. The AF647-conjugated detection peptide was previously verified to bind to ferroportin and cause its internalization. The cells were washed again after a 2 hr incubation in preparation for flow cytometry analysis. The Median Fluorescence Intensity (MFI) of the AF647-positive population was measured (after removing dead cells and non-singlets from the analysis). The MFI values were used to generate a dose-response curve and obtain IC50 potencies for the test peptides. The IC50 potencies were calculated by using 4-parameter non-linear fitting function in Graphpad Prism (Table 2A).

[3] = biological target: human ferroportin (SLC40A1) fused in frame with GFP, stably expressed in HEK293 cells (human) (UniProt Q9NP59); assay: cell-based or functional assay

Compound | DC50 [1] [nM] | IC50 [2] [nM] | Potency EC50 (nM), FPN activity assay (ferroportin-GFP internalization/degradation, HEK293 cells) [3] [nM]
CC[C@H](C)[C@@H]1NC(=O)[C@@H](NC(=O)[C@@H]2CCCN2C(=O)[C@@H](NC(=O)[C@H](Cc2cncn2C)NC(=O)[C@@H](NC(=O)[C@H](CC2N=NN=N2)NC(=O)CC(C)C)[C@@H](C)O)C(c2ccccc2)c2ccccc2)CSSC[C@@H](C(N)=O)NC(=O)[C@@H](CCCCN)NC(=O)C[C@H](Cc2ccccc2)NC(=O)[C@H](CCCCNC(=O)COCCOCCNC(=O)COCCOCCNC(=O)CC[C@H](NC(=O)CCCCCCCCCCCCCCCCC(=O)O)C(=O)O)NC1=O [Compd 8, Isovaleric Acid-[Tet1]-T-[His_3Me]-[Dpa]-P-[Cys]-I-[Lys(1PEG2_1PEG2_IsoGlu_C18_Diacid)]-[bhPhe]-[(D)Lys]-[Cys]-NH2] | 10 to 100 | 100 to 500 | –
CC[C@H](C)[C@@H]1NC(=O)[C@@H](NC(=O)[C@@H]2CCCN2C(=O)[C@@H](NC(=O)[C@H](Cc2c[nH]cn2)NC(=O)[C@@H](NC(=O)[C@H](Cc2nn[nH]n2)NC(=O)CC(C)C)[C@@H](C)O)C(c2ccccc2)c2ccccc2)CSSC[C@H](C(N)=O)NC(=O)C[C@H](Cc2ccccc2)NC(=O)[C@H](CCCCNC(=O)COCCOCCNC(=O)COCCOCCNC(=O)CC[C@H](NC(=O)CCCCCCCCCCCCCCCCC(=O)O)C(=O)O)NC1=O [Compd 36, Isovaleric Acid-[Tet1]-T-H-[Dpa]-P-[Cys]-I-[Lys(1PEG2_1PEG2_IsoGlu_C18_Diacid)]-[bhPhe]-d[Cys]-NH2] (Isovaleryl-[Ala(1H-tetrazol-5-yl)]TH[Dip]PCIK([AEEA-AEEA-γGlu-C18 diacid])[β3hF][dC]-NH2; disulfide 6-10) | 10 to 100 | 100 to 500 | –
CC[C@H](C)[C@@H]1NC(=O)[C@@H](NC(=O)[C@@H]2CCCN2C(=O)[C@@H](NC(=O)[C@H](Cc2c[nH]cn2)NC(=O)[C@@H](NC(=O)[C@H](Cc2nn[nH]n2)NC(=O)CC(C)C)[C@@H](C)O)C(c2ccccc2)c2ccccc2)CSSC[C@@H](C(N)=O)NC(=O)[C@@H](CCCCN)NC(=O)C[C@H](Cc2ccccc2)NC(=O)[C@H](CCCCNC(=O)COCCOCCNC(=O)COCCOCCNC(=O)CC[C@H](NC(=O)CCCCCCCCCCCCCCCCC(=O)O)C(=O)O)NC1=O [Compd 40, Isovaleric Acid-[Tet1]-T-H-[Dpa]-P-[Cys]-I-[Lys(1PEG2_1PEG2_IsoGlu_C18_Diacid)]-[bhPhe]-[(D)Lys]-[Cys]-NH2] (Isovaleryl-[Ala(1H-tetrazol-5-yl)]TH[Dip]PCIK([AEEA-AEEA-γGlu-C18 diacid])[β3hF][dK]C-NH2; disulfide 6-11) | 10 to 100 | 10 to 100 | –
CC[C@H](C)[C@@H]1NC(=O)[C@@H](NC(=O)[C@@H]2CCCN2C(=O)[C@@H](NC(=O)[C@H](Cc2c[nH]cn2)NC(=O)[C@@H](NC(=O)[C@H](Cc2nn[nH]n2)NC(=O)CC(C)C(F)(F)F)[C@@H](C)O)C(c2ccccc2)c2ccccc2)CSSC[C@@H](C(N)=O)NC(=O)[C@@H](CCCCN)NC(=O)C[C@H](Cc2ccccc2)NC(=O)[C@H](CCCCNC(=O)COCCOCCNC(=O)COCCOCCNC(=O)CC[C@H](NC(=O)CCCCCCCCCCCCCCCCC(=O)O)C(=O)O)NC1=O (stereo partly drawn) [Compd 45, Butyric_Acid_3CF3-[Tet1]-T-H-[Dpa]-P-[Cys]-I-[Lys(1PEG2_1PEG2_IsoGlu_C18_Diacid)]-[bhPhe]-[(D)Lys]-[Cys]-NH2] | 10 to 100 | 100 to 500 | –
CC[C@H](C)[C@@H]1NC(=O)[C@@H](NC(=O)[C@@H]2CCCN2C(=O)[C@@H](NC(=O)[C@H](Cc2c[nH]cn2)NC(=O)[C@@H](NC(=O)[C@H](Cc2nn[nH]n2)NC(=O)C(C)(C)Br)[C@@H](C)O)C(c2ccccc2)c2ccccc2)CSSC[C@@H](C(N)=O)NC(=O)[C@@H](CCCCN)NC(=O)C[C@H](Cc2ccccc2)NC(=O)[C@H](CCCCNC(=O)COCCOCCNC(=O)COCCOCCNC(=O)CC[C@H](NC(=O)CCCCCCCCCCCCCCCCC(=O)O)C(=O)O)NC1=O [Compd 46, Propanoic_Acid_2Me2Br-[Tet1]-T-H-[Dpa]-P-[Cys]-I-[Lys(1PEG2_1PEG2_IsoGlu_C18_Diacid)]-[bhPhe]-[(D)Lys]-[Cys]-NH2] | 10 to 100 | 10 to 100 | –
CC[C@H](C)[C@@H]1NC(=O)[C@@H](NC(=O)[C@@H]2CCCN2C(=O)[C@@H](NC(=O)[C@H](Cc2c[nH]cn2)NC(=O)[C@@H](NC(=O)[C@H](Cc2nn[nH]n2)NC(=O)CCC(F)(F)F)[C@@H](C)O)C(c2ccccc2)c2ccccc2)CSSC[C@@H](C(N)=O)NC(=O)[C@@H](CCCCN)NC(=O)C[C@H](Cc2ccccc2)NC(=O)[C@H](CCCCNC(=O)COCCOCCNC(=O)COCCOCCNC(=O)CC[C@H](NC(=O)CCCCCCCCCCCCCCCCC(=O)O)C(=O)O)NC1=O [Compd 47, TriF_Butyric_Acid-[Tet1]-T-H-[Dpa]-P-[Cys]-I-[Lys(1PEG2_1PEG2_IsoGlu_C18_Diacid)]-[bhPhe]-[(D)Lys]-[Cys]-NH2] (X4-[Ala(1H-tetrazol-5-yl)]TH[Dip]PCIK([AEEA-AEEA-γGlu-C18 diacid])[β3hF][dK]C-NH2; disulfide 6-11) | 10 to 100 | 100 to 500 | –
CCCC(=O)N[C@@H](Cc1nn[nH]n1)C(=O)N[C@H](C(=O)N[C@@H](Cc1c[nH]cn1)C(=O)N[C@H](C(=O)N1CCC[C@H]1C(=O)N[C@H]1CSSC[C@@H](C(N)=O)NC(=O)[C@@H](CCCCN)NC(=O)C[C@H](Cc2ccccc2)NC(=O)[C@H](CCCCNC(=O)COCCOCCNC(=O)COCCOCCNC(=O)CC[C@H](NC(=O)CCCCCCCCCCCCCCCCC(=O)O)C(=O)O)NC(=O)[C@H]([C@@H](C)CC)NC1=O)C(c1ccccc1)c1ccccc1)[C@@H](C)O [Compd 49, Butyric_Acid-[Tet1]-T-H-[Dpa]-P-[Cys]-I-[Lys(1PEG2_1PEG2_IsoGlu_C18_Diacid)]-[bhPhe]-[(D)Lys]-[Cys]-NH2] | 10 to 100 | 10 to 100 | –
CCCCCCCCCCCCCCCC(=O)NCCCCCC(=O)NCCCC[C@@H]1NC(=O)C[C@H](Cc2ccccc2)NC(=O)[C@@H](CCCCNC(=O)CCOCCOCCOCCOCCOCCOCCOCCOCCOCCOCCOCCOC)NC(=O)[C@H]([C@@H](C)CC)NC(=O)[C@@H](NC(=O)[C@@H]2CCCN2C(=O)[C@@H](NC(=O)[C@H](Cc2c[nH]cn2)NC(=O)[C@@H](NC(=O)[C@H](Cc2nn[nH]n2)NC(=O)CC(C)C)[C@@H](C)O)C(c2ccccc2)c2ccccc2)CSSC[C@@H](C(N)=O)NC(=O)[C@@H](CCCCNC(=O)CCOCCOCCOCCOCCOCCOCCOCCOCCOCCOCCOCCOC)NC1=O [Compd 50, Isovaleric Acid-[Tet1]-T-H-[Dpa]-P-[Cys]-I-[(DLys(PEG11_OMe-[bhPhe]-[Lys(Ahx_Palm)]-[(D)Lys(PEG11_OMe)]-[Cys]-NH2] (Isovaleryl-[Ala(1H-tetrazol-5-yl)]TH[Dip]PCI[dK](CH3O(CH2CH2O)11CH2CH2CO)[β3hF]K([Ahx-Palmitoyl])[dK](CH3O(CH2CH2O)11CH2CH2CO)C-NH2; disulfide 6-12) | 10 to 100 | 1 to 10 | –
CC[C@H](C)[C@@H]1NC(=O)[C@@H](NC(=O)[C@@H]2CCCN2C(=O)[C@@H](NC(=O)[C@H](Cc2cnc[nH]2)NC(=O)[C@@H](NC(=O)[C@H](CC2N=NN=N2)NC(=O)CC(C)C)[C@@H](C)O)C(c2ccccc2)c2ccccc2)CSSC[C@@H](C(N)=O)NC(=O)[C@@H](CCCCN)NC(=O)C[C@H](Cc2ccccc2)NC(=O)[C@H](CCCCNC(=O)COCCOCCNC(=O)COCCOCCNC(=O)CCCCCNC(=O)CCCCCCCCCCCCCCCCC(=O)O)NC1=O [Compd 51, Isovaleric Acid-[Tet1]-T-H-[Dpa]-P-[Cys]-I-[Lys(1PEG2_1PEG2_Ahx_C18_Diacid)]-[bhPhe]-[(D)Lys]-[Cys]-NH2] | 10 to 100 | 10 to 100 | –
CC[C@H](C)[C@@H]1NC(=O)[C@@H](NC(=O)[C@@H]2CCCN2C(=O)[C@@H](NC(=O)[C@H](Cc2cnc[nH]2)NC(=O)[C@@H](NC(=O)[C@H](CC2N=NN=N2)NC(=O)CC(C)C)[C@@H](C)O)C(c2ccccc2)c2ccccc2)CSSC[C@@H](C(N)=O)NC(=O)[C@@H](CCCCN)NC(=O)C[C@H](Cc2ccccc2)NC(=O)[C@H](CCCCNC(=O)COCCOCCNC(=O)COCCOCCNC(=O)[C@H](CN)NC(=O)CCCCCCCCCCCCCCCCC(=O)O)NC1=O [Compd 53, Isovaleric_Acid-[Tet1]-T-H-[Dpa]-P-[Cys]-I-[Lys(1PEG2_1PEG2_Dap_C18_Diacid)]-[bhphe]-[(D)Lys]-[Cys]-NH2] | 10 to 100 | 10 to 100 | –
Mini-Hepcidin 1-9, Hy-…-NH2 (peptide) | – | – | 712
